Where two headings read alike, the source gives them in different places.
What was measured:
HCV replicon 1A = test: Cell-based HCV Replicon Assay A, replicon 1A
Method: (§1) To measure cell-based anti-HCV activity of compounds of the present invention, two complimentary assays were employed using various replicons. In the first assay (“Replicon Assay A”), replicon cells were seeded at 2000 cells/well in 384-well 384-well flat bottom tissue culture treated clear bottom plate (Corning 3707) in the presence of the test compound. Various concentrations of test compound, typically in 10 serial dilutions, were added to the assay mixture, with the starting concentration ranging from 333.3 nM to […]. The final concentration of DMSO was 0.5%. Fetal bovine serum was 5%, in the assay media. Cells were harvested on day 3 by removing media and washing the cells with a suitable wash buffer. The cells are lysed with the addition of 1× Qiagen lysis buffer (Cat #1062731). The replicon RNA level was measured using real time PCR (TaqMan® EZ RT-PCR, Applied Biosystems 403028) with the following primers and probes: […]
(§2) Cyclophilin RNA was used as endogenous control and was amplified in the same reaction as NS5B (multiplex PCR). The real-time RT-PCR reactions were run on ABI PRISM 7900HT Sequence Detection System using the following program: 50° C. for 2 minutes, 60° C. for 30 minutes, 95° C. for 5 minutes, 40 cycles of 94° C. for 20 sec, 55° C. for 1 minutes.
(§3) The amount of HCV replicon RNA per cell is quantified using a linear regression curve for a known nanogram (ng) amount of HCV replicon total RNA. This is established by plotting the Cycle Threshold values (Ct) from the Neo probe and primer set versus the log (ng) for each HCV replicon total RNA standard. The amount of HCV RNA for each replicon sample is calculated by taking the sample's Ct value, minus the line intercept, divided by the slope of the line. Similarly, the amount of Cyclophilin mRNA per cell is also quantified using a linear regression curve for a known nanogram (ng) amount of HCV replicon total RNA. Again, this is established by plotting the Cycle Threshold values (Ct) from the Cyclophilin probe and primer set versus the log (ng) for each HCV replicon total RNA standard.
(§4) Data was obtained for various compounds of the present invention using the methods described in the Example above, and is presented in the table immediately below. Data for replicons 1A, 1AY93H and 2B were obtained using Replicon Assay A and data for replicons 1AQ30D and 1B were obtained using Replicon Assay B.

HCV replicon 2B = test: Cell-based HCV Replicon Assay A, replicon 2B
Method: as §1, §2, §3, §4

HCV replicon 1AY93H = test: Cell-based HCV Replicon Assay A, replicon 1AY93H
Method: as §1, §2, §3, §4

[1] = read-out: 1A Y93H IC50, replicon 1AY93H
[2] = Hepatitis C virus, read-out: 1A Y93H IC50 (nM), replicon 1AY93H
[3] = Hepatitis C virus, read-out: 2B IC50 (nM), replicon 2B

SMILES | IC50 (HCV replicon 1A) | IC50 (HCV replicon 2B; read-out: 2B IC50, replicon 2B) | IC50 (HCV replicon 1AY93H; [1]) | IC50 (HCV replicon 1A; Hepatitis C virus) | IC50 (HCV replicon 1AY93H; [2]) | IC50 (HCV replicon 2B; [3])
COC(=O)N[C@H](C(=O)N1CCC[C@H]1c1ncc(-c2cc(F)c3c(c2)OC(c2cnc(-c4ccc(F)cc4)s2)n2c-3cc3cc(-c4cnc([C@@H]5CCCN5C(=O)[C@@H](NC(=O)OC)C(C)C)[nH]4)ccc32)[nH]1)C(C)C (single isomer, unassigned) [Compound 32] | 1.2 pM | 0.231 nM | 0.344 nM | – | – | –
CCc1ncc(C2Oc3cc(-c4cnc([C@@H]5CCCN5C(=O)[C@@H](NC(=O)OC)C(C)C)[nH]4)cc(F)c3-c3cc4cc(-c5cnc([C@@H]6CCCN6C(=O)C(NC(=O)OC)C6C[C@@H](C)O[C@@H](C)C6)[nH]5)ccc4n32)s1 (single isomer, unassigned) [Compound 35] | – | 0.125 nM | 0.161 nM | 2.6 pM | – | –
CCc1ncc(C2Oc3cc(-c4cnc([C@@H]5CCCN5C(=O)[C@@H](NC(=O)OC)C(C)C)[nH]4)cc(F)c3-c3cc4cc(-c5cnc([C@@H]6CCCN6C(=O)C(NC(=O)OC)C6CCOC(C)(C)C6)[nH]5)ccc4n32)s1 (single isomer, unassigned) [Compound 37] | – | 0.226 nM | 0.257 nM | 2.2 pM | – | –
CCc1ncc(C2Oc3cc(-c4cnc([C@@H]5CCCN5C(=O)[C@@H](NC(=O)OC)C(C)C)[nH]4)cc(F)c3-c3cc4cc(-c5cnc([C@@H]6CCCN6C(=O)C(NC(=O)OC)C6CCOC(C)(C)C6)[nH]5)ccc4n32)s1 (single isomer, unassigned) [Compound 39] | 3.7 pM | 0.004 nM | 0.0112 nM | – | – | –
COC(=O)N[C@H](C(=O)N1CCC[C@H]1c1ncc(-c2cc(F)c3c(c2)OC(c2cnc(-c4ccc(Cl)cc4)s2)n2c-3cc3cc(-c4cnc([C@@H]5CCCN5C(=O)[C@@H](NC(=O)OC)C(C)C)[nH]4)ccc32)[nH]1)C(C)C (single isomer, unassigned) [Compound 54] | 1.3 pM | 0.248 nM | 0.429 nM | – | – | –
COC(=O)NC(C(=O)N1CCC[C@H]1c1ncc(-c2ccc3c(c2)cc2n3C(c3cnc(C(C)C)s3)Oc3cc(-c4cnc([C@@H]5CCCN5C(=O)[C@@H](NC(=O)OC)C(C)C)[nH]4)cc(F)c3-2)[nH]1)C1C[C@@H](C)O[C@@H](C)C1 (single isomer, unassigned) [Compound 56] | – | 0.104 nM | 0.285 nM | 1.1 pM | – | –
CCCc1ncc(C2Oc3cc(-c4cnc([C@@H]5CCCN5C(=O)[C@@H](NC(=O)OC)C(C)C)[nH]4)cc(F)c3-c3cc4cc(-c5cnc([C@@H]6CCCN6C(=O)C(NC(=O)OC)C6CCOC(C)(C)C6)[nH]5)ccc4n32)s1 (single isomer, unassigned) [Compound 58] | – | 0.003 nM | 0.0086 nM | 2.6 pM | – | –
COC(=O)NC(C(=O)N1CCC[C@H]1c1ncc(-c2ccc3c(c2)cc2n3C(c3cnc(C(C)C)s3)Oc3cc(-c4cnc([C@@H]5CCCN5C(=O)[C@@H](NC(=O)OC)C(C)C)[nH]4)cc(F)c3-2)[nH]1)C1CCOC(C)(C)C1 (single isomer, unassigned) [Compound 62] | 1.8 pM | 0.427 nM | – | – | 0.212 nM | –
COC(=O)NC(C(=O)N1CCC[C@H]1c1ncc(-c2ccc3c(c2)cc2n3C(c3cnc(C(C)C)s3)Oc3cc(-c4cnc([C@@H]5CCCN5C(=O)[C@@H](NC(=O)OC)C(C)C)[nH]4)cc(F)c3-2)[nH]1)C1CCOC(C)(C)C1 (single isomer, unassigned) [Compound 63] | 48.3 pM | 1.67 nM | 0.254 nM | – | – | –
COC(=O)NC(C(=O)N1[C@@H]2C[C@@H]2C[C@H]1c1ncc(-c2ccc3c(c2)cc2n3C(c3ncc(C4CC4)s3)Oc3cc(-c4cnc([C@@H]5CCCN5C(=O)[C@@H](NC(=O)OC)C(C)C)[nH]4)cc(F)c3-2)[nH]1)C1C[C@@H](C)O[C@@H](C)C1 (single isomer, unassigned) [Compound 64] | – | 0.268 nM | 0.159 nM | 1.2 pM | – | –
COC(=O)NC(C(=O)N1[C@@H]2C[C@@H]2C[C@H]1c1ncc(-c2ccc3c(c2)cc2n3C(c3cnc(C(C)C)s3)Oc3cc(-c4cnc([C@@H]5CCCN5C(=O)[C@@H](NC(=O)OC)C(C)C)[nH]4)cc(F)c3-2)[nH]1)C1CCOC(C)(C)C1 (single isomer, unassigned) [Compound 68] | 1.4 pM | – | 0.0996 nM | – | – | 0.253 nM
COC(=O)NC(C(=O)N1CCC[C@H]1c1ncc(-c2ccc3c(c2)cc2n3C(c3nc(C(F)(F)F)cs3)Oc3cc(-c4cnc([C@@H]5CCCN5C(=O)[C@@H](NC(=O)OC)C(C)C)[nH]4)cc(F)c3-2)[nH]1)C1C[C@@H](C)O[C@@H](C)C1 (single isomer, unassigned) [Compound 75] | – | 0.491 nM | 0.875 nM | 2.2 pM | – | –
COC(=O)NC(C(=O)N1CCC[C@H]1c1ncc(-c2ccc3c(c2)cc2n3C(c3cnc(-c4ccc(F)cc4)s3)Oc3cc(-c4cnc([C@@H]5CCCN5C(=O)[C@@H](NC(=O)OC)C(C)C)[nH]4)cc(F)c3-2)[nH]1)C1C[C@@H](C)O[C@@H](C)C1 (single isomer, unassigned) [Compound 80] | – | 0.047 nM | 0.0504 nM | 1.5 pM | – | –
CCc1ncc(C2Oc3cc(-c4cnc([C@@H]5CCCN5C(=O)[C@@H](NC(=O)OC)C(C)C)[nH]4)cc(F)c3-c3cc4cc(-c5cnc([C@@H]6CCCN6C(=O)[C@@H](NC(=O)OC)C(C)C)[nH]5)ccc4n32)s1 (single isomer, unassigned) [Compound 82] | 2.3 pM | 1.1 nM | 1.58 nM | – | – | –
CCc1ncc(C2Oc3cc(-c4cnc([C@@H]5CCCN5C(=O)[C@@H](NC(=O)OC)C(C)C)[nH]4)cc(F)c3-c3cc4cc(-c5cnc([C@@H]6C[C@H]7C[C@H]7N6C(=O)[C@@H](CC(=O)OC)C(C)C)[nH]5)ccc4n32)s1 (single isomer, unassigned) [Compound 84] | 3.7 pM | 0.425 nM | 0.0708 nM | – | – | –
CCCc1ncc(C2Oc3cc(-c4cnc([C@@H]5CCCN5C(=O)[C@@H](NC(=O)OC)C(C)C)[nH]4)cc(F)c3-c3cc4cc(-c5cnc([C@@H]6C[C@H]7C[C@H]7N6C(=O)[C@@H](NC(=O)OC)C(C)C)[nH]5)ccc4n32)s1 (single isomer, unassigned) [Compound 91] | 2.1 pM | 0.17 nM | 0.0537 nM | – | – | –
COC(=O)N[C@H](C(=O)N1CCC[C@H]1c1ncc(-c2cc(F)c3c(c2)OC(c2cnc(-c4ccc(F)cc4F)s2)n2c-3cc3cc(-c4cnc([C@@H]5CCCN5C(=O)[C@@H](NC(=O)OC)C(C)C)[nH]4)ccc32)[nH]1)C(C)C (single isomer, unassigned) [Compound 99] | 1.6 pM | 0.1 nM | 0.26 nM | – | – | –
COC(=O)NC(C(=O)N1[C@@H]2C[C@@H]2C[C@H]1c1ncc(-c2ccc3c(c2)c(F)c2n3C(c3cnc(C4CC4)s3)Oc3cc(-c4cnc([C@@H]5CCCN5C(=O)[C@@H](NC(=O)OC)C(C)C)[nH]4)cc(F)c3-2)[nH]1)C1CCOC(C)(C)C1 (single isomer, unassigned) [Compound 113] | 2 pM | 0.176 nM | 0.678 nM | – | – | –
CCCc1ncc(C2Oc3cc(-c4cnc([C@@H]5CCCN5C(=O)[C@@H](NC(=O)OC)C(C)C)[nH]4)cc(C)c3-c3cc4cc(-c5cnc([C@@H]6C[C@H]7C[C@H]7N6C(=O)[C@@H](NC(=O)OC)C(C)C)[nH]5)ccc4n32)s1 (single isomer, unassigned) [Compound 205] | – | 0.57 nM | 2.46 nM | 6 pM | – | –
COC(=O)N[C@H](C(=O)N1CCC[C@H]1c1ncc(-c2cc(C)c3c(c2)OC(c2cnc(C4CC4)s2)n2c-3cc3cc(-c4cnc([C@@H]5C[C@H]6C[C@H]6N5C(=O)[C@@H](NC(=O)OC)C(C)(C)F)[nH]4)ccc32)[nH]1)C(C)C (single isomer, unassigned) [Compound 209] | 3 pM | 0.155 nM | 0.197 nM | – | – | –
COC(=O)NC(C(=O)N1CCC[C@H]1c1ncc(-c2ccc3c(c2)cc2n3C(c3cnc(C4CC4)s3)Oc3cc(-c4cnc([C@@H]5CCCN5C(=O)[C@@H](NC(=O)OC)C(C)C)[nH]4)cc(C)c3-2)[nH]1)C1C[C@@H](C)O[C@@H](C)C1 (single isomer, unassigned) [Compound 215] | – | – | – | 2.4 pM | 0.828 nM | 0.09 nM
COC(=O)NC(C(=O)N1CCC[C@H]1c1ncc(-c2ccc3c(c2)cc2n3C(c3cnc(C4CCC4)s3)Oc3cc(-c4cnc([C@@H]5CCCN5C(=O)[C@@H](NC(=O)OC)C(C)C)[nH]4)cc(C)c3-2)[nH]1)C1C[C@@H](C)O[C@@H](C)C1 (single isomer, unassigned) [Compound 218] | – | 0.035 nM | 0.12 nM | 2 pM | – | –
